Earlier results on two compounds are cited in PMC9301952 (ACS Omega, 2022).

The test system of this data set is mouse. The following applies: behavioral assay used to predict psychedelic drug activity.

Take `CNCCc1c[nH]c2cccc(O)c12` [norpsilocin, 4-hydroxy-N-methyltryptamine]: the “activity in the mouse head twitch assay” value is on record as “neither compound is active”.
Consider `CNCCc1c[nH]c2cccc(OP(=O)(O)O)c12` [baeocystin, 4-phosphoryloxy-N-methyltryptamine], for which the “activity in the mouse head twitch assay” value is recorded as “neither compound is active”.
